Source: PubChem BioAssay (NCI)
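Cultured in 96-well plates, cells were exposed to test compound for 48 hours across five concentrations. The concentration for 50% growth inhibition is given as GI50. TGI: concentration producing complete growth inhibition.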

Assays:
Assay in all cases: NCI-60 cell line screen, 48 h; in the data active means GI50 below about 0.43 µM; inactive means the rest
UACC-62 melanoma = tested on: UACC-62 melanoma
HCT-15 colon = tested on: HCT-15 colon
NCI-H23 lung = tested on: NCI-H23 lung
HCC-2998 colon = tested on: HCC-2998 colon
TK-10 renal = tested on: TK-10 renal
MCF7 breast = tested on: MCF7 breast
MDA-MB-435 = tested on: MDA-MB-435
HOP-92 NSCLC = tested on: HOP-92 NSCLC
NCI/ADR-RES ovarian = tested on: NCI/ADR-RES ovarian
MDA-MB-231 breast = tested on: MDA-MB-231 breast
BT-549 breast = tested on: BT-549 breast
UACC-257 melanoma = tested on: UACC-257 melanoma
COLO 205 colon = tested on: COLO 205 colon
M14 melanoma = tested on: M14 melanoma
KM12 colon = tested on: KM12 colon
SK-MEL-5 melanoma = tested on: SK-MEL-5 melanoma
EKVX NSCLC = tested on: EKVX NSCLC
ACHN renal = tested on: ACHN renal
DU-145 prostate = tested on: DU-145 prostate
NCI-H522 lung = tested on: NCI-H522 lung
HS 578T breast = tested on: HS 578T breast
A498 renal = tested on: A498 renal
MALME-3M melanoma = tested on: MALME-3M melanoma
HOP-62 NSCLC = tested on: HOP-62 NSCLC
SK-OV-3 ovarian = tested on: SK-OV-3 ovarian
SW-620 colon = tested on: SW-620 colon
OVCAR-8 ovarian = tested on: OVCAR-8 ovarian
MOLT-4 leukemia = tested on: MOLT-4 leukemia
RXF 393 renal = tested on: RXF 393 renal
SF-295 CNS = tested on: SF-295 CNS
CAKI-1 renal = tested on: CAKI-1 renal
SN12C renal = tested on: SN12C renal
SNB-19 CNS = tested on: SNB-19 CNS
LOX IMVI melanoma = tested on: LOX IMVI melanoma
SK-MEL-28 melanoma = tested on: SK-MEL-28 melanoma
HCT-116 colon = tested on: HCT-116 colon
UO-31 renal = tested on: UO-31 renal
OVCAR-4 ovarian = tested on: OVCAR-4 ovarian
CCRF-CEM leukemia = tested on: CCRF-CEM leukemia
OVCAR-3 ovarian = tested on: OVCAR-3 ovarian
A549 NSCLC = tested on: A549 NSCLC
RPMI-8226 leukemia = tested on: RPMI-8226 leukemia
T-47D breast = tested on: T-47D breast
PC-3 prostate = tested on: PC-3 prostate
SF-268 CNS = tested on: SF-268 CNS
SK-MEL-2 melanoma = tested on: SK-MEL-2 melanoma
OVCAR-5 ovarian = tested on: OVCAR-5 ovarian
SNB-75 CNS = tested on: SNB-75 CNS
IGROV1 ovarian = tested on: IGROV1 ovarian
U251 CNS = tested on: U251 CNS
786-0 renal = tested on: 786-0 renal
SF-539 CNS = tested on: SF-539 CNS
NCI-H460 lung = tested on: NCI-H460 lung
HT29 colon = tested on: HT29 colon
K-562 leukemia = tested on: K-562 leukemia
NCI-H226 lung = tested on: NCI-H226 lung
HL-60(TB) leukemia = tested on: HL-60(TB) leukemia

CC1/C(=N/Nc2ccc([N+](=O)[O-])cc2)CC2C3(C)CCC2(C(C)C(=O)O)C(=O)C13 (stereo not drawn)
> 100 µM: TGI (UACC-62 melanoma) | TGI (HCT-15 colon) | TGI (NCI-H23 lung) | TGI (TK-10 renal) | TGI (MCF7 breast) | TGI (MDA-MB-435) | TGI (HOP-92 NSCLC) | TGI (NCI/ADR-RES ovarian) | TGI (MDA-MB-231 breast) | TGI (BT-549 breast) | TGI (UACC-257 melanoma) | TGI (COLO 205 colon) | TGI (M14 melanoma) | TGI (KM12 colon) | TGI (SK-MEL-5 melanoma) | TGI (EKVX NSCLC) | TGI (ACHN renal) | TGI (DU-145 prostate) | TGI (NCI-H522 lung) | TGI (HS 578T breast) | TGI (MALME-3M melanoma) | TGI (HOP-62 NSCLC) | TGI (SK-OV-3 ovarian) | TGI (SW-620 colon) | TGI (OVCAR-8 ovarian) | TGI (MOLT-4 leukemia) | TGI (RXF 393 renal) | TGI (SF-295 CNS) | TGI (CAKI-1 renal) | TGI (SN12C renal) | TGI (SNB-19 CNS) | TGI (LOX IMVI melanoma) | TGI (SK-MEL-28 melanoma) | TGI (HCT-116 colon) | TGI (UO-31 renal) | TGI (OVCAR-4 ovarian) | TGI (CCRF-CEM leukemia) | TGI (OVCAR-3 ovarian) | TGI (A549 NSCLC) | TGI (T-47D breast) | TGI (PC-3 prostate) | TGI (SF-268 CNS) | TGI (SK-MEL-2 melanoma) | TGI (OVCAR-5 ovarian) | TGI (SNB-75 CNS) | TGI (IGROV1 ovarian) | TGI (U251 CNS) | TGI (786-0 renal) | TGI (SF-539 CNS) | TGI (NCI-H460 lung) | TGI (HT29 colon)
51.7 µM: TGI (HCC-2998 colon)
24 µM: TGI (RPMI-8226 leukemia)
41.9 µM: TGI (A498 renal)
inactive: GI50 (UACC-62 melanoma) 6.51 µM | GI50 (HCT-15 colon) 4.22 µM | GI50 (NCI-H23 lung) 29.1 µM | GI50 (HCC-2998 colon) 2.39 µM | GI50 (TK-10 renal) 9.98 µM | GI50 (MCF7 breast) 7.17 µM | GI50 (MDA-MB-435) 27.4 µM | GI50 (HOP-92 NSCLC) 23.6 µM | GI50 (NCI/ADR-RES ovarian) 5.7 µM | GI50 (MDA-MB-231 breast) 4.06 µM | GI50 (BT-549 breast) 12.3 µM | GI50 (UACC-257 melanoma) > 100 µM | GI50 (COLO 205 colon) 9 µM | GI50 (M14 melanoma) 11.2 µM | GI50 (KM12 colon) 11.3 µM | GI50 (SK-MEL-5 melanoma) 11.4 µM | GI50 (EKVX NSCLC) 3.36 µM | GI50 (ACHN renal) 6.33 µM | GI50 (DU-145 prostate) > 100 µM | GI50 (NCI-H522 lung) 4.48 µM | GI50 (HS 578T breast) 3.55 µM | GI50 (A498 renal) 0.85 µM | GI50 (MALME-3M melanoma) > 100 µM | GI50 (HOP-62 NSCLC) 95 µM | GI50 (SK-OV-3 ovarian) > 100 µM | GI50 (SW-620 colon) 49.4 µM | GI50 (OVCAR-8 ovarian) 8.17 µM | GI50 (MOLT-4 leukemia) 22.5 µM | GI50 (RXF 393 renal) 3.18 µM | GI50 (SF-295 CNS) 4.74 µM | GI50 (CAKI-1 renal) 5.95 µM | GI50 (SN12C renal) 60.9 µM | GI50 (SNB-19 CNS) > 100 µM | GI50 (LOX IMVI melanoma) 75.3 µM | GI50 (SK-MEL-28 melanoma) > 100 µM | GI50 (HCT-116 colon) 6.97 µM | GI50 (UO-31 renal) 4.31 µM | GI50 (OVCAR-4 ovarian) > 100 µM | GI50 (CCRF-CEM leukemia) 16.3 µM | GI50 (OVCAR-3 ovarian) 1.72 µM | GI50 (A549 NSCLC) 5.5 µM | GI50 (RPMI-8226 leukemia) 2.95 µM | GI50 (T-47D breast) 4.14 µM | GI50 (PC-3 prostate) 34.4 µM | GI50 (SF-268 CNS) 33.5 µM | GI50 (SK-MEL-2 melanoma) 8.75 µM | GI50 (OVCAR-5 ovarian) > 100 µM | GI50 (SNB-75 CNS) > 100 µM | GI50 (IGROV1 ovarian) > 100 µM | GI50 (U251 CNS) 30.2 µM | GI50 (786-0 renal) 11.3 µM | GI50 (SF-539 CNS) 5.44 µM | GI50 (NCI-H460 lung) 5.88 µM | GI50 (HT29 colon) 6.18 µM

COc1ccc2nc(C)cc(Nc3ccccc3O)c2c1
48 µM: TGI (HL-60(TB) leukemia)
45.8 µM: TGI (M14 melanoma)
82 µM: TGI (HCT-116 colon)
30.4 µM: TGI (SK-MEL-5 melanoma)
54.4 µM: TGI (NCI-H460 lung)
61.2 µM: TGI (HOP-92 NSCLC) | TGI (MALME-3M melanoma)
51.4 µM: TGI (RPMI-8226 leukemia)
96.8 µM: TGI (T-47D breast)
inactive: GI50 (UACC-62 melanoma) 17.9 µM | GI50 (HCT-15 colon) 32.4 µM | GI50 (NCI-H23 lung) 38.5 µM | GI50 (HCC-2998 colon) 17.6 µM | GI50 (TK-10 renal) 50.6 µM | GI50 (MCF7 breast) 20.5 µM | GI50 (MDA-MB-435) 18.1 µM | GI50 (HOP-92 NSCLC) 10.9 µM | GI50 (NCI/ADR-RES ovarian) 47.2 µM | GI50 (MDA-MB-231 breast) 27.9 µM | GI50 (BT-549 breast) 37.1 µM | GI50 (UACC-257 melanoma) 19 µM | GI50 (COLO 205 colon) 18.3 µM | GI50 (M14 melanoma) 17.6 µM | GI50 (KM12 colon) 35.9 µM | GI50 (SK-MEL-5 melanoma) 15.4 µM | GI50 (ACHN renal) 32.1 µM | GI50 (DU-145 prostate) 45.3 µM | GI50 (NCI-H522 lung) 45.2 µM | GI50 (HS 578T breast) 31.9 µM | GI50 (A498 renal) 8.07 µM | GI50 (MALME-3M melanoma) 27.3 µM | GI50 (HOP-62 NSCLC) 49.3 µM | GI50 (SK-OV-3 ovarian) > 100 µM | GI50 (SW-620 colon) 26.7 µM | GI50 (OVCAR-8 ovarian) 24.8 µM | GI50 (MOLT-4 leukemia) 24.8 µM | GI50 (SF-295 CNS) 24.5 µM | GI50 (CAKI-1 renal) 36.1 µM | GI50 (SN12C renal) 38.2 µM | GI50 (SNB-19 CNS) 76.5 µM | GI50 (LOX IMVI melanoma) 18.5 µM | GI50 (K-562 leukemia) 17.8 µM | GI50 (NCI-H226 lung) 28 µM | GI50 (SK-MEL-28 melanoma) 21.3 µM | GI50 (HCT-116 colon) 15 µM | GI50 (UO-31 renal) 21.2 µM | GI50 (OVCAR-4 ovarian) 22.4 µM | GI50 (HL-60(TB) leukemia) 21 µM | GI50 (CCRF-CEM leukemia) 21.7 µM | GI50 (OVCAR-3 ovarian) 37.2 µM | GI50 (A549 NSCLC) 38 µM | GI50 (RPMI-8226 leukemia) 17.2 µM | GI50 (T-47D breast) 32.8 µM | GI50 (PC-3 prostate) 29.9 µM | GI50 (SF-268 CNS) 29.2 µM | GI50 (SK-MEL-2 melanoma) 27.1 µM | GI50 (OVCAR-5 ovarian) 28.9 µM | GI50 (SNB-75 CNS) 69.9 µM | GI50 (IGROV1 ovarian) 31.4 µM | GI50 (U251 CNS) 17.6 µM | GI50 (786-0 renal) 18.1 µM | GI50 (SF-539 CNS) 19.2 µM | GI50 (NCI-H460 lung) 19.4 µM | GI50 (HT29 colon) 23.9 µM
35.3 µM: TGI (U251 CNS)
45.4 µM: TGI (MDA-MB-435)
64.8 µM: TGI (K-562 leukemia)
> 100 µM: TGI (HCT-15 colon) | TGI (NCI-H23 lung) | TGI (TK-10 renal) | TGI (NCI/ADR-RES ovarian) | TGI (MDA-MB-231 breast) | TGI (BT-549 breast) | TGI (KM12 colon) | TGI (ACHN renal) | TGI (DU-145 prostate) | TGI (NCI-H522 lung) | TGI (HS 578T breast) | TGI (HOP-62 NSCLC) | TGI (SK-OV-3 ovarian) | TGI (SW-620 colon) | TGI (SF-295 CNS) | TGI (CAKI-1 renal) | TGI (SN12C renal) | TGI (SNB-19 CNS) | TGI (NCI-H226 lung) | TGI (UO-31 renal) | TGI (OVCAR-4 ovarian) | TGI (CCRF-CEM leukemia) | TGI (OVCAR-3 ovarian) | TGI (A549 NSCLC) | TGI (PC-3 prostate) | TGI (SF-268 CNS) | TGI (OVCAR-5 ovarian) | TGI (SNB-75 CNS) | TGI (IGROV1 ovarian) | TGI (HT29 colon)
78.6 µM: TGI (MOLT-4 leukemia)
51.2 µM: TGI (MCF7 breast)
42.2 µM: TGI (SF-539 CNS)
43.6 µM: TGI (UACC-257 melanoma)
42.1 µM: TGI (786-0 renal)
86.8 µM: TGI (SK-MEL-2 melanoma)
57.3 µM: TGI (SK-MEL-28 melanoma)
39 µM: TGI (LOX IMVI melanoma)
45.2 µM: TGI (A498 renal)
39.5 µM: TGI (UACC-62 melanoma)
34.3 µM: TGI (HCC-2998 colon)
36.5 µM: TGI (COLO 205 colon)
69.7 µM: TGI (OVCAR-8 ovarian)
